The target of series [1] is T1, hα7-wt nAChR (Homo sapiens, UniProt P36544). The series is described as follows: Patch-clamp current recording (whole-cell voltage clamp), potentiation of choline current and PAM type. Format: cell-based. Set-up: key: Type 0 compounds minimally enhance the effect size of the current elicited by 1 mM choline.; Type 1 compounds enhance the effect size of the current elicited by 1 mM choline but minimally alter the kinetics of the receptor.; Type 2 compounds enhance the effect size of the current elicited by 1 mM choline while reducing the rate and/or the extent of desensitization.; Type 3 compounds enhance the effect size of the current elicited by 1 mM choline. When tested at higher concentrations up to 10 μM they completely inhibit desensitization, in particular a 1 mM choline application of 250 milliseconds.; Type 4 compounds allow for an initial desensitization of the receptor followed by a re-opening of the receptor during agonist application. Conditions: hα7-wt nAChR-expressing GH4C1 cells, 1 mM choline. As for the experimental part:
The compounds of the present invention are classified as type 0-4, based on qualitative kinetic properties, as determined by whole-cell voltage-clamp recordings. This classification is based on the effect of an α7 PAM compound, as described hereinbefore, on the signal elicited by an agonist application. In particular, said agonist is choline at a concentration of 1 mM. In a preferred experimental setting, said α7 PAM compound and choline are simultaneously applied to the cell, as described hereinafter. Desensitization is defined as the closure of the receptor upon activation during the application of the agonist in whole-cell voltage-clamp electrophysiology measurements seen as the reduction of the […] current after initial activation by the agonist.
The definition of the PAM types 0-4 is described hereinafter: • Type 0 compounds minimally enhance the effect size of the current elicited by 1 mM choline. • Type 1 compounds enhance the effect size of the current elicited by 1 mM choline but minimally alter the kinetics of the receptor. In particular, the rate and the extent of desensitization, elicited by the agonist, is not affected. The compound-modulated response to 1 mM choline, therefore, is a close to linear scaling of the 1 mM choline response in absence of the α7 PAM compound. • Type 2 compounds enhance the effect size of the current elicited by 1 mM choline while reducing the rate and/or the extent of desensitization. • Type 3 compounds enhance the effect size of the current elicited by 1 mM choline. […] At low-potency concentrations of the α7 PAM compound, the agonist-induced activation, which is followed by desensitization, can still be separated from the compound-induced re-opening as an initial inward current-maximum. At higher potency concentrations of the α7 PAM compound, the re-opening occurs faster than the closure due to desensitization so that the initial current-maximum disappears.
A compound was considered to have interesting PAM-like activity when the potentiation of the peak current was at least 200% compared to the control choline response (=100%). Such compounds are classified as belonging to a particular PAM type in the Experimental Part. Compounds not meeting the condition are not classified as belonging to a particular PAM-type.
The compounds also have a potentiating effect on the response to choline when measured by whole-cell patch clamp electrophysiology in GH4C1 cells stably over-expressing the human wild-type α7 receptor.
Patch-clamp recording from mammalian cells has provided a powerful means of assessing the function of membrane-bound proteins thought to be subunits of ligand-gated ion channels. Activation of such proteins by endogenous or exogenous ligands cause opening of a pore associated with the receptor through which ions flow down their electrochemical gradient. In the case of the hα7-wt nAChR-expressing GH4C1 recombinant cell line the preferential permeability to calcium of this receptor means that calcium flows into the cell upon activation by ACh, choline and other nicotinic ligands giving rise to a calcium current. Since this receptor rapidly desensitizes in the presence of agonist it is important an application system is used which is capable of very rapid switching of solutions (<100 ms) to prevent partial or full desensitisation of receptor responses coincident with the time of agonist application. Consequently, a second convenient technique to assess the enhancement of nicotinic efficacy is patch-clamp recording from hα7-wt nAChR-expressing GH4C1 cells coupled with a rapid-application system.
• a) Assay Buffers • The external recording solution consisted of 152 mM NaCl, 5 mM KCl, 1 mM MgCl2, 1 mM Calcium, 10 mM HEPES; pH 7.3. […]
(In general: In patch-clamp work, channel activity is measured electrically.)

Series [2] deals with T1, hα7-wt nAChR. The series can be described thus: Ca2+ flux imaging (FDSS): potentiation of the choline response. The series is classed as cell-based. Particulars: Ca2+ assay as described in D.1, potentiation of choline response, hα7-wt nAChR; for EC50: read-out: Potency (pEC50) (converted). In outline:
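Cells expressing human α7-wt nAChR loaded with fluo-4AM (2 μM final) up to 120 min; HBSS/10 mM HEPES/5 mM CaCl2/0.1% BSA buffer. Compound (0.01–30 μM) applied up to 10 min before 100 μM choline; peak fluorescence measured on FDSS relative to choline alone (100%). EC50 from sigmoidal curves.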
On the technique in general: Calcium flux is commonly read through the fluorescence of an indicator in the cells.

The values that follow come from patent US8791144B2, “Substituted N-phenyl-1-(4-Pyridinyl)-1H-pyrazol-3-amines” (Janssen Pharmaceutica NV, priority 2009, dated 2014).

One may read the melting point as the temperature of the solid-liquid transition.

T1 sequence (P36544 23-502): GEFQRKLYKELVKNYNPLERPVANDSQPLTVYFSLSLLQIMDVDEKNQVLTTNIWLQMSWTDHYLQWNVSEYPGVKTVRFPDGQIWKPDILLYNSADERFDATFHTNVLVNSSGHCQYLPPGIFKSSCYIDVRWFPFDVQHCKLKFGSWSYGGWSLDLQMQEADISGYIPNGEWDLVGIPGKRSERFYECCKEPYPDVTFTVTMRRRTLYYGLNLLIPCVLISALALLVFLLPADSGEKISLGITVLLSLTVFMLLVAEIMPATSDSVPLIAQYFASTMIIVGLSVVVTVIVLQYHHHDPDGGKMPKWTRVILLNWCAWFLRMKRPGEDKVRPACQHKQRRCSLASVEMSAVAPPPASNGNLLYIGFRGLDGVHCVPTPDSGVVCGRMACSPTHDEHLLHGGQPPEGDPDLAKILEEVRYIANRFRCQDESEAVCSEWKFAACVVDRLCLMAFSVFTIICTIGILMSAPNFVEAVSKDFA

Take `CC[C@H](O)Cc1cc(Nc2cccc(OC(F)(F)F)c2)nn1-c1ccnc(C)c1` [Compound 106, (alphaS)-alpha-ethyl-1-(2-methyl-4-pyridinyl)-3-[[3-(trifluoromethoxy)phenyl]amino]-1H-pyrazole-5-ethanol]: the melting point amounted to 147.3 °C. Besides, in series [1], the PAM type turned out to be 2. Further, the EC50 in series [2] is 1820 nM.
Molecule `CC[C@H](O)Cc1cc(Nc2ccc(OC)c(C(F)(F)F)c2)nn1-c1ccnc(C)c1` [Compound 38, (alphaS)-alpha-ethyl-3-[[4-methoxy-3-(trifluoromethyl)phenyl]amino]-1-(2-methyl-4-pyridinyl)-1H-pyrazole-5-ethanol] came in with a melting point of 129 °C. Moreover, the PAM type in series [1] is given as 2. Moreover, in series [2], the EC50 is 1320 nM.
In the same order, the values of `Cc1cc(-n2nc(Nc3cccc(C(F)(F)F)c3)cc2CC(=O)NCC2CC2)ccn1` [Compound 47, N-(cyclopropylmethyl)-1-(2-methyl-4-pyridinyl)-3-[[3-(trifluoromethyl)phenyl]amino]-1H-pyrazole-5-acetamide] are 207.5 °C, 4 and 219 nM.
Take `CCNC(=O)Cc1cc(Nc2cccc(C(F)(F)F)c2)nn1-c1ccnc(C)c1` [Compound 44, N-ethyl-1-(2-methyl-4-pyridinyl)-3-[[3-(trifluoromethyl)phenyl]amino]-1H-pyrazole-5-acetamide]: the melting point turned out to be 228.9 °C. For the same molecule, the PAM type in series [1] came out at 2. Moreover, the EC50 in series [2] is 603 nM.
As to `CNC(=O)Cc1cc(Nc2cccc(OC(F)(F)F)c2)nn1-c1cc(C)nc(C)c1` [Compound 112, 1-(2,6-dimethyl-4-pyridinyl)-N-methyl-3-[[3-(trifluoromethoxy)phenyl]amino]-1H-pyrazole-5-acetamide], the melting point worked out at 222 °C. The PAM type in series [1] was 2. In addition, the EC50 in series [2] is 1290 nM.
In the same order, the values of `CNC(=O)Cc1cc(Nc2cc(Cl)cc(OC)c2)nn1-c1ccnc(C)c1` [Compound 72, 3-[(3-chloro-5-methoxyphenyl)amino]-N-methyl-1-(2-methyl-4-pyridinyl)-1H-pyrazole-5-acetamide] are 215 °C, 3 and 1820 nM.
The matching figures for `Cc1cc(-n2nc(Nc3ccc4c(c3)OC(F)(F)O4)cc2CC(=O)NCC2CC2)ccn1` [Compound 101, N-(cyclopropylmethyl)-3-[(2,2-difluoro-1,3-benzodioxol-5-yl)amino]-1-(2-methyl-4-pyridinyl)-1H-pyrazole-5-acetamide]: 232.3 °C, 2 and 603 nM.
For the molecule `CC[C@H](O)Cc1cc(Nc2cc(Cl)cc(OC)c2)nn1-c1ccnc(C)c1` [Compound 61, (alphaS)-3-[(3-chloro-5-methoxyphenyl)amino]-alpha-ethyl-1-(2-methyl-4-pyridinyl)-1H-pyrazole-5-ethanol], the melting point amounted to 125.3 °C. Besides, the PAM type in series [1] was 2. The EC50 in series [2] was 794 nM.
Regarding `CCNC(=O)Cc1cc(Nc2cc(OC)cc(C(F)(F)F)c2)nn1-c1ccnc(C)c1` [Compound 45, N-ethyl-3-[[3-methoxy-5-(trifluoromethyl)phenyl]amino]-1-(2-methyl-4-pyridinyl)-1H-pyrazole-5-acetamide], the melting point amounted to 248.6 °C. Further, the PAM type in series [1] is given as 4. In addition, the EC50 in series [2] is 200 nM.
Regarding `CCNC(=O)Cc1cc(Nc2ccc(F)c(F)c2)nn1-c1ccnc(C)c1` [Compound 28, 3-[(3,4-difluorophenyl)amino]-N-ethyl-1-(2-methyl-4-pyridinyl)-1H-pyrazole-5-acetamide], the melting point is 242.4 °C. In series [1], the PAM type is given as 2. For the same molecule, in series [2], the EC50 was 2510 nM.
In the same order, the values of `Cc1cc(-n2nc(Nc3ccc4c(c3)OC(F)(F)O4)cc2CCCO)ccn1` [Compound 92, 3-[(2,2-difluoro-1,3-benzodioxol-5-yl)amino]-1-(2-methyl-4-pyridinyl)-1H-pyrazole-5-propanol] are 163.3 °C, 2 and 2340 nM.
In the same order, the values of `Cc1cc(-n2nc(Nc3ccc4c(c3)OC(F)(F)O4)cc2CC(=O)NC2CCC2)ccn1` [Compound 102, N-cyclobutyl-3-[(2,2-difluoro-1,3-benzodioxol-5-yl)amino]-1-(2-methyl-4-pyridinyl)-1H-pyrazole-5-acetamide] are 237.7 °C, 2 and 240 nM.
In turn, `CC[C@H](O)Cc1cc(Nc2cc(F)c(F)cc2F)nn1-c1ccnc(C)c1` [Compound 21, (alphaS)-alpha-ethyl-1-(2-methyl-4-pyridinyl)-3-[(2,4,5-trifluorophenyl)amino]-1H-pyrazole-5-ethanol] gave a melting point of 166.6 °C. The PAM type in series [1] turned out to be 2. In addition, the EC50 in series [2] was 3470 nM.
In the same order, the values of `Cc1cc(-n2nc(Nc3ccc4c(c3)OC(F)(F)O4)cc2CCC(=O)N(C)C)ccn1` [Compound 99, 3-[(2,2-difluoro-1,3-benzodioxol-5-yl)amino]-N,N-dimethyl-1-(2-methyl-4-pyridinyl)-1H-pyrazole-5-propanamide] are 132 °C, 4 and 490 nM.
`Cc1cc(-n2nc(Nc3cccc(OC(F)(F)F)c3)cc2CC(=O)NC2CC2)ccn1` [Compound 117, N-cyclopropyl-1-(2-methyl-4-pyridinyl)-3-[[3-(trifluoromethoxy)phenyl]amino]-1H-pyrazole-5-acetamide] had a melting point of 224.6 °C. Moreover, the PAM type in series [1] is on record as 3. Also, in series [2], the EC50 was 1200 nM.
Take `CC[C@H](O)Cc1cc(Nc2cccc(Cl)c2F)nn1-c1ccnc(C)c1` [Compound 58, (alphaS)-3-[(3-chloro-2-fluorophenyl)amino]-alpha-ethyl-1-(2-methyl-4-pyridinyl)-1H-pyrazole-5-ethanol]: the melting point stood at 168.2 °C. Besides, the PAM type in series [1] amounted to 1. Further, in series [2], the EC50 was 2510 nM.
For the molecule `Cc1cc(-n2nc(Nc3cccc(OC(F)(F)F)c3)cc2CC(=O)NC(C)C)ccn1` [Compound 115, N-(1-methylethyl)-1-(2-methyl-4-pyridinyl)-3-[[3-(trifluoromethoxy)phenyl]amino]-1H-pyrazole-5-acetamide], the melting point was determined as 228.3 °C. The PAM type in series [1] is 1. For the same molecule, the EC50 in series [2] was 389 nM.
`CC[C@H](O)Cc1cc(Nc2ccc(F)c(F)c2)nn1-c1ccnc(C)c1` [Compound 17, (alphaS)-3-[(3,4-difluorophenyl)amino]-alpha-ethyl-1-(2-methyl-4-pyridinyl)-1H-pyrazole-5-ethanol] returned a melting point of 163.2 °C. Further, the PAM type in series [1] came to 2. Moreover, in series [2] (read-out: % Efficacy), the Emax turned out to be 880%. Besides, in series [2], the EC50 is 1660 nM.
